# Results: patent US11401286B2 (Tetra Discovery Partners, LLC, priority 2012, dated 2022)
# Molecular target: PDE4D7 (Homo sapiens (Human), UniProt Q08499)
# Conditions: not given
# Chain of PDE4D7 (Q08499 other isoform, or with tags, fused parts or gaps): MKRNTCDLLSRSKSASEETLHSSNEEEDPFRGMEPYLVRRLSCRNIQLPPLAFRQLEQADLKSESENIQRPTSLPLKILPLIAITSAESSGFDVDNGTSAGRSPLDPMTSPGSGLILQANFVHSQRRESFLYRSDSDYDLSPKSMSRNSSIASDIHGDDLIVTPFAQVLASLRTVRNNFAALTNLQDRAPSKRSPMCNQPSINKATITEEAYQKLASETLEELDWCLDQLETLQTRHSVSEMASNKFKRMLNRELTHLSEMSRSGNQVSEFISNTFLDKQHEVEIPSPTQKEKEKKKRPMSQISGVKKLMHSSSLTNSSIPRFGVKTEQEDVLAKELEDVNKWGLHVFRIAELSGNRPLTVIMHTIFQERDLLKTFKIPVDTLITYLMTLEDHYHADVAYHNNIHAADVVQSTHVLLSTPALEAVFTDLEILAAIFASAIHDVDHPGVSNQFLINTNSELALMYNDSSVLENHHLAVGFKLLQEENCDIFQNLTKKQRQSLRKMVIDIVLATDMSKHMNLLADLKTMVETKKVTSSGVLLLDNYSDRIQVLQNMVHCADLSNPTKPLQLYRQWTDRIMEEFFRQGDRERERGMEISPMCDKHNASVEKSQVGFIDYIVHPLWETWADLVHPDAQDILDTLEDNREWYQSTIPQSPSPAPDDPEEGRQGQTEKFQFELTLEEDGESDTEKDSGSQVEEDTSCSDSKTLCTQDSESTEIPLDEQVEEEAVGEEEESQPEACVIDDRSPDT
row,IC50,Compound
1,> 1000 nM,"CCCNC(=O)Cc1ccc(Cc2cc(CC)nc(-c3cccc(Cl)c3)n2)cc1 [Example 193, 2-(4-((2-(3-Chlorophenyl)-6-ethylpyrimidin-4-yl)methyl)phenyl)-N-propylacetamide]"

# Same assay, conditions: read-out: PDE4D7 IC50
row,Compound,IC50
1,"CCc1cc(Nc2ccc(CCO)cc2)nc(-c2cccc(Cl)c2)n1 [Example 191, 2-(4-((2-(3-chlorophenyl)-6-ethylpyrimidin-4-yl)amino)phenyl)ethanol]",< 1000 nM

# Same assay, conditions: read-out: PDE4D7 IC50; PDE4D7 without asterisk
row,Compound,IC50
1,"CCc1cc(/N=c2\[nH]cc(CC(N)=O)o2)nc(-c2cccc(Cl)c2)n1 [Example 192, 2-(2-((2-(3-Chlorophenyl)-6-ethylpyrimidin-4-yl)imino)-2,3-dihydrooxazol-5-yl)acetamide]",> 1000 nM
2,"CCc1cc(Cc2ccc(CC(=O)NCCO)cc2)nc(-c2cccc(Cl)c2)n1 [Example 195, 2-(4-((2-(3-chlorophenyl)-6-ethylpyrimidin-4-yl)methyl)phenyl)-N-(2-hydroxyethyl)acetamide]",< 1000 nM
3,"NC(=O)Cc1ccc(Nc2cc(C(F)(F)F)nc(OC3CCCC3)n2)cc1 [Example 198, 2-(4-((2-(Cyclopentyloxy)-6-(trifluoromethyl)pyrimidin-4-yl)amino)phenyl)acetamide]",> 1000 nM
4,"OCCc1ccc(Nc2cc(C(F)(F)F)nc(OC3CCCC3)n2)cc1 [Example 199, 2-(4-((2-(Cyclopentyloxy)-6-(trifluoromethyl)pyrimidin-4-yl)amino)phenyl)ethanol]",< 1000 nM
5,"O=C(O)Cc1ccc(Cc2cc(C(F)(F)F)nc(OC3CCCC3)n2)cc1 [Example 200, 2-(4-((2-(Cyclopentyloxy)-6-(trifluoromethyl)pyrimidin-4-yl)methyl)phenyl)acetic acid]",> 1000 nM
6,"NC(=O)Cc1ccc(Cc2cc(C(F)(F)F)nc(OC3CCCC3)n2)cc1 [Example 201, 2-(4-((2-(Cyclopentyloxy)-6-(trifluoromethyl)pyrimidin-4-yl)methyl)phenyl)acetamide]",> 1000 nM
7,"OCCc1ccc(Cc2cc(C(F)(F)F)nc(OC3CCCC3)n2)cc1 [Example 202, 2-(4-((2-(Cyclopentyloxy)-6-(trifluoromethyl)pyrimidin-4-yl)methyl)phenyl)ethanol]",> 1000 nM

# Further lines, results first:
row,IC50,Compound
1,< 1000 nM,"CCc1cc(Cc2ccc(Cn3cc(Cl)cn3)cc2)nc(-c2cccc(Cl)c2)n1 [Example 190, 4-(4-((4-Chloro-1H-pyrazol-1-yl)methyl)benzyl)-2-(3-chlorophenyl)-6-ethylpyrimidine]"
2,< 1000 nM,"CCCN(C)C(=O)Cc1ccc(Cc2cc(CC)nc(-c3cccc(Cl)c3)n2)cc1 [Example 194, 2-(4-((2-(3-Chlorophenyl)-6-ethylpyrimidin-4-yl)methyl)phenyl)-N-methyl-N-propylacetamide]"
3,> 1000 nM,"CCc1cc(Cc2ccc(C(C)(C)C(N)=O)cc2)nc(-c2cccc(Cl)c2)n1 [Example 196, 2-(4-((2-(3-Chlorophenyl)-6-ethylpyrimidin-4-yl)methyl)phenyl)-2-methylpropanamide]"
4,> 1000 nM,"CCc1cc(Cc2ccc(C(C)(C)CO)cc2)nc(-c2cccc(Cl)c2)n1 [Example 197, 2-(4-((2-(3-Chlorophenyl)-6-ethylpyrimidin-4-yl)methyl)phenyl)-2-methylpropan-1-ol]"
5,> 1000 nM,"COC(=O)Cc1ccc(Cc2cc(C(F)(F)F)nc(-c3cccc(Cl)c3)n2)cc1 [Example 203, Methyl 2-(4-((2-(3-chlorophenyl)-6-(trifluoromethyl)pyrimidin-4-yl)methyl)phenyl)acetate]"
6,> 1000 nM,"NC(=O)Cc1ccc(Cc2cc(C(F)(F)F)nc(-c3cccc(Cl)c3)n2)cc1 [Example 204, 2-(4-((2-(3-Chlorophenyl)-6-(trifluoromethyl)pyrimidin-4-yl)methyl)phenyl)acetamide]"
7,> 1000 nM,"OCCc1ccc(Cc2cc(C(F)(F)F)nc(-c3cccc(Cl)c3)n2)cc1 [Example 205, 2-(4-((2-(3-Chlorophenyl)-6-(trifluoromethyl)pyrimidin-4-yl)methyl)phenyl)ethanol]"
